Measurements reported in patent US20250382631A1, “PROTAC-CID SYSTEMS FOR USE IN MULTIPLEX GENE REGULATION” (William Marsh Rice University, priority 2022, published 2025).

Legend:
[1] = tested on: endogenous HEK3 locus in HEK293T cells; assay: Inducible prime editing, His6 Tag insertion (Sanger sequencing, TIDE); type: cell-based, human; conditions: high TRE3G-driven PE2 plasmid dose (120 ng per well), 100 nM dTAG-13, 3 days, FIG. 3H
Protocol: Prime editing measurement. HEK293T cells were seeded into 96 well plates (Corning no. 3598). When the cells reach 20% confluency, 265 ng to 290 ng plasmids (See Table 1 for plasmid dosage used in each condition) were firstly mixed with 25 μL DMEM. 0.5 μL Lipofectamine 2000 (Life Technology no. 11661089) was incubated with 25 μL DMEM for 5 min. Next, plasmid solution was mixed with the Lipofectamine 2000 solution for 20 min and added into the cells gently. After 12 h, the supernatants were changed with fresh 10% FBS (Thermo Fisher Scientific no. 10437028) DMEM medium (Thermo Fisher Scientific no. 10569044) supplied with Puromycin (10 μg/mL Thermo Fisher Scientific no. A1113803) and 100 nM dTAG-13 (TOCRIS no. 6605/5) or DMSO (Sigma, no. D8418). 3 days post-induction, the supernatant was removed and supplied with 100 μL lysis buffer (10 mM tris-HCl (pH=7.5), 0.05% SDS, and proteinase K (25 μg/mL, Thermo Fisher Scientific no. 01169965)) followed by 37° C. 1 h, 58° C. 30 min and inactivated at 95° C. for 20 min. […] The insertion efficiency was analyzed online in TIDE (https://tide.nki.nl/) (Brinkman et al., 2018) with the setting (left boundary=100, Decomposition window (115-685 bp), Indel size range (28 bp), P-value threshold=0.001).

endogenous BRD4 = biological target: T1, endogenous BRD4 (Mus musculus, UniProt Q9ESU6); assay: Immunoblot of endogenous BRD4 in mice liver tissue; type: in vivo, FVB mice; conditions: 50 mg/kg MZ1 i.p., FIG. 21
T1 construct: Immunoblot analysis of endogenous long isoform BRD4 (BRD4L) after 50 mg/kg MZ1 treatment i.p; from tissue; host or cells: liver of FVB mice (AAV-infected, MZ1-treated)
Description: Immunoblots and RT-qPCR. Mice liver tissues or culture cells were lysed in RIPA buffer (Abcam no. ab156034) supplemented with phosphatase inhibitor (Thermo Fisher Scientific no. PIA32957) and protease inhibitors (Fishers cientific no. A32965). Lysates were resolved by 10% Tris-glycine SDS-PAGE, transferred to PVDF membrane (Bio-Rad no. 1620177), and blotted with antibodies BRD4 (Abcam, ab128874), GAPDH (Cell Signaling Technology, 2118L), luciferase (ABclonal, requested), Ran (ABclonal, A0976), Hsp90 (Cell Signaling Technology, 4874). Images were acquired using LumiQuant AC600 (Acuronbio Technology Inc), quantification analysis was processed by ImageJ software. Trizol reagent (Sigma no. T9424) was used to extract total RNA from liver. RNAs were purified using RNeasy Mini kit (QIAGEN no. 4106). The quality and concentration of total RNA were checked on NanoDrop™ 2000/2000c Spectrophotometers (Thermo Fisher Scientific no. ND2000LAPTOP). Reverse transcription of total RNA was performed using a Applied Biosystems™ High-Capacity cDNA Reverse Transcription Kit (Thermo Fisher Scientific no. 4368813) and qPCR was conducted with SYBR Green Master Mix (Abclonal no. RK21203) on QuantStudio 6 Real-time PCR system (Thermo Fisher Scientific).
AAV production and Mouse for in vivo delivery. […] FVB mice were purchased from the Jackson Laboratory.

CC[C@H](C(=O)N1CCCC[C@H]1C(=O)O[C@H](CCc1ccc(OC)c(OC)c1)c1ccccc1OCC(=O)NCCCCCCOc1cccc2c1C(=O)N(C1CCC(=O)NC1=O)C2=O)c1cc(OC)c(OC)c(OC)c1 (some centres unmarked) [dTAG-13]
prime editing efficiency (His6 Tag insertion) [1]: more than 20%

Cc1ncsc1-c1ccc(CNC(=O)[C@@H]2C[C@@H](O)CN2C(=O)[C@@H](NC(=O)COCCOCCOCCNC(=O)C[C@@H]2N=C(c3ccc(Cl)cc3)c3c(sc(C)c3C)-n3c(C)nnc32)C(C)(C)C)cc1 [MZ1]
expression of BRD4 in mice liver tissue (endogenous BRD4): did not observe a significant change in the expression of BRD4
